{
  "source": "PubChem BioAssay AID504611",
  "about": "(National Center for Advancing Translational Sciences (NCATS), 2011)",
  "system": "Caco-2 monolayer permeability, A-to-B, LC-MS/MS",
  "experiment": "Inhibitors of 12-hLO: Caco-2 Permeability Profiling",
  "details": "stronger effect = higher value",
  "from_the_text": "Assay Provider: Holman, T.R., University of California, Santa Cruz Grant #: MH08128301 Screening Center PI: Austin, C.P. Screening Center: NIH Chemical Genomics Center [NCGC] Human lipoxygenase 12hLO is a member of the closely related lipoxygenase family of enzymes which catalyze the site-specific oxidation of arachidonic acid to various hormone precursor molecules and as such is a candidate for drug development in a variety of disease areas, such as cancer and inflammation. After qHTS, hits were confirmed in follow-up assays, and leads were optimized through SAR. The resulting lead compound was further characterized through a battery ADME-Tox experiments and this assay describes its Caco-2 permeability. This permeability assay predicts the in vivo absorption of the lead across the intestinal lining by using a Caco-2 cell line and measuring the lead's rate of transport […].\n1. Buffer Preparation: Prepare 1M HEPES: add 23.83g HEPES to 100ml of 0.85% NaCl Prepare HBSS+ buffer: add 12.8ml of 1M HEPES in 0.85% NaCl to 500ml HBSS buffer. 2. Take out the compounds from -80 degrees C, ultrasonicate or pre-warm for a few minutes to thaw the compounds. 3. […] The T0, LY and T90, LY plates are read by FlexStation 3 at excitation of 485 nm and emission of 535 nm to determine LY permeability. […]",
  "data": [
    {"smiles": "CC(=O)NC(c1cccs1)c1cc(Br)c2cccnc2c1O", "note": "(stereo unspecified)", "values": [
      {"measurement": "permeability Papp", "result": "8.8 10^-6 cm/s"}
    ]}
  ]
}
